The source of these data is patent US7550507B2, “2-(alpha-hydroxypentyl) benzoate and its preparation and use” (Institute of Materia Medica, Chinese Academy of Medical …, priority 2002, dated 2009).

Several values for one entry are separate records, joined by “and”; a condition that tells them apart may be missing. Identical values can stand only once. Marks after values point to notes of the source that are not given here.

Assay [1] deals with platelet aggregation induced by ADP. Description: Platelet aggregation induced by ADP in PRP of rats after oral administration (Born method). It counts as in vivo, male Wistar rats. The following applies: ADP 5 μmol/L. As to the method:
Animal: male Wistar rats (260-280 g), from the Animal Center of the Chinese Academy of Medical Sciences.
Potassium 2-(1-hydroxypentyl)-benzoate, dl-PHPB),
ADP, obtained from Shanghai Institute of Biochemistry, Acedemia Sinica.
Equipment: Platelet Aggregometer (type: PAT-4A MEGURO-KU, TOKYO, JAPAN.
Groups: Animals were divided into four groups:
1) Control group: double-distilled water (400 mg/kg) was adimistrated per os (p.o) 30 minutes prior blood sampling;
2) Dl-PHPB (400 mg/kg) was administrated per os (p.o) 30 minutes prior to the blood sampling;
3) Dl-PHPB (400 mg/kg) was administrated per os (p.o) 60 minutes prior to the blood sampling;
4) Dl-PHPB (200 mg/kg) was administrated per os (p.o) 30 minutes prior to the blood sampling;
After oral administration of dl-PHPB, blood was drawn from the carotid of rats at the time points of 30 and 60 minutes, respectively. Platelet rich plasma (PRP) and platelet poor plasma (PPP) were prepared upon common procedure. According to the method described by of Born, PRP (200 μl) was put on the Platelet Aggregometer and pre-incubated at 37° C. for 5 minutes and then ADP with the final concentration of 5 μmol/L was added to induce platelet aggregation. The maximum aggregation was measured 5 minutes after the addition of ADP.

The test system of the next assay is isolated hearts on rats. Description: Cardiac arrhythmia induced by ischemia-reperfusion in isolated rat hearts (Langendorff perfusion). More on the design: species or system male Wistar rats. The settings on record: for Duration of Arrhythmia: 15 min ischemia, 30 min reperfusion, control 22.5 ± 9.5; for VT Duration: control 8.2 ± 7.9; for VF Incidence: control 33.3; for Spasmic VT Incidence: control 66.7; for VE Incidence: control 83.3; for VT Incidence: control 100. As for the experimental part: Animals: male Wistar rats, 250-300 g, from the Animal Center of the Chinese Academy of Medical Sciences, randomly grouped.
Langendoff perfusion system;
XD-7100 ECG, Shanghai Medical Electronic Devices Factory
(1) remove the rat heart quickly after decapitation and put it into K—H solution at 4° C., fix the aorta to the perfusion system;
(2) perfuse the heart with K—H solution, 6-8 ml/min, 37±0.5° C., under the pressure of about 60 mmH2O;
(3) connect the two copper electrodes to the cardiac apex and the bottom of the right atria and record the cardiogram;
(4) perporate under the left anterior descending branch of the coronary artery with 3/0 line;
(5) perfuse the heart for 10 minutes and record the normal cardiogram;
(6) ligate the left anterior descending branch of the coronary artery to make myocardial ischemia for 15 minutes;
(7) nip the line and resume the perfusion, record the change of cardiogram for 30 minutes (mainly on VF and Spasmic VT);
(8) dissolve the dl-PHPB at pH 1.5 to a desired concentration, add it into K—H solution to do the experiments.

Another assay concerns rats of permanent MCAO. Description: Infarction area after local cerebral ischemia (permanent MCAO) in rats, TTC staining. It is filed as in vivo, male Wistar rats. The settings on record: 24 hours after MCAO; for infarct area (weight percentage of the infarct tissue to the total cerebral tissue), X ± SD: 200 mg/kg p.o. with HCl (pH 1.6) 0.5 ml, 30 min prior to ischemia, control 26.99 ± 3.51. As to the method:
Animal: male Wistar rats (250-280 g), from the Animal Center of the Chinese Academy of Medical Sciences.
dl-PHPB was dissolved in double distilled water.
Methods: Middle cerebral artery occlusion(MCAO): the rats were anesthetized by trichloroacetaldehyde monohydrate (350 mg/kg, ip). The left CCA was exposed through a middle neck incision and was carefully dissected free from surrounding nerves. The ICA and ECA were isolated. Then a 4 cm long 0.26 mm diameter nylon suture was inserted through proximal ECA into ICA for a length of […] from the bifurcation. The wounds were sutured and the rats were released. The room temperature was kept 24-25° C. during the test.
Animals were divided into two groups, 1) administration group: dl-PHPB (200 mg/kg) and HCl (pH 1.6) 0.5 ml (to mimic the acidic condition of the human stomach) were administrated per os (p.o) 30 minutes prior to ischemia; 2) Control group: double-distilled water and HCl (pH 1.6) 0.5 ml were administrated per os (p.o) 30 minutes prior to ischemia.
The anaesthetized animals were decapitated 24 hours after MCAO. Each brain were rapidly removed and kept in ice-cold saline (0-4° C.). After 10 minutes, the coronal section was sliced into five pieces after the removal of bulbus olfactus, cerebellum, and low brain stem. Upon cutting, the first cut was at the center point of the connection line of the polus anterior of cerebrum and the optic chiasm, the second cut was at the site of optic chiasm, the third was at the site of infundibulum stalk, and the fourth was between the infundibulum stalk and the caudal pole of posterior lobe. The sliced brain was kept in a 5 ml solution of TTC (4%) and K2HPO4 (1M), shaded and incubated at 37° C. for 30 minutes. During the incubation, slices were turned over every 7 -8 minutes. […] The infarcted tissue was separated from the normal tissue and weighed. The infarction area is calculated from the weight percentage of the infarct tissue to the total cerebral tissue.

As to `CCCCC(O)c1ccccc1C(=O)[O-].[K+]` (racemic) [dl-PHPB, Potassium dl-2-(α-hydroxypentyl) benzoate], the Rate of inhibition in assay [1] (200 mg/kg p.o., 30 min) was determined as 6.62%; in assay [1] (400 mg/kg p.o., 30 min) it was 19.31%; in assay [1] (400 mg/kg p.o., 60 min), 10.21%. Besides, the entries for the “Duration of Arrhythmia” value with isolated hearts on rats (10^−4 mol/L in K-H solution) and with isolated hearts on rats (10^−5 mol/L in K-H solution) were 1.7 ± 0.6 min and 23.3 ± 5.8 min, respectively. The “VT Duration” value is 1.1 ± 0.6 min in the assay on isolated hearts on rats (10^−4 mol/L) and 5.0 ± 6.5 min in the assay with isolated hearts on rats (10^−5 mol/L). The “VF Incidence” value with isolated hearts on rats (10^−4 mol/L) is reported as 0%; with isolated hearts on rats (10^−5 mol/L), 33.3%. In addition, the “Spasmic VT Incidence” value in the assay on isolated hearts on rats (10^−4 mol/L) is 0* %; in the assay with isolated hearts on rats (10^−5 mol/L) it was 50%. Moreover, the “VE Incidence” value amounted to 42.9% in the assay on isolated hearts on rats (10^−4 mol/L) and 66.7% with isolated hearts on rats (10^−5 mol/L). Moreover, the “VT Incidence” value in the assay with isolated hearts on rats (10^−4 mol/L) and in the assay with isolated hearts on rats (10^−5 mol/L) was 100% in each case. Further, the “infarct area, individual animals of treated group” value in the assay on rats of permanent MCAO (200 mg/kg p.o. 30 min prior to ischemia, single rats) is 18.79% and 26.01% and 20.24% and 18.24% and 22.74% and 16.84% and 15.93%. Further, the figures for the “infarct area (weight percentage of the infarct tissue to the total cerebral tissue), X ± SD” value in the assay with rats of permanent MCAO and in the assay with rats of permanent MCAO (listed as dl-PHBP) were 19.83 ± 3.53 % and 19.83±3.53%, respectively.
